# Data as given in patent publication US7405236B2, “Indole derivatives comprising an acetylene group” (Hoffman-La Roche Inc., priority 2004, dated 2008).
# Tests used:
# Conditions in all cases: receptor binding, SPA
# [1] = target: T1, PPARα (Homo sapiens, UniProt Q07869); assay: PPARα radioligand binding assay (scintillation proximity, GST-PPARα-LBD)
# T1 construct: PPARα (aa 167 to 469); made in house; host or cells: E. coli BL21(pLysS)
# T1 sequence (Q07869 167-468 limits assumed): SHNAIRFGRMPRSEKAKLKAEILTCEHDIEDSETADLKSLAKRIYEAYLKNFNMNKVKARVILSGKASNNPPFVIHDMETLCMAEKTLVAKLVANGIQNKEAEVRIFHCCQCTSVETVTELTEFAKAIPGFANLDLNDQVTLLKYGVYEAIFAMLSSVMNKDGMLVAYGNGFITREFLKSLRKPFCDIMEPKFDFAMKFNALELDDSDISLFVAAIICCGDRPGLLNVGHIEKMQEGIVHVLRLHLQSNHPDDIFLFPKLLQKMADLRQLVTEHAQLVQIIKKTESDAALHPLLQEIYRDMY
# Source text: (§1) Background information on the performed assays can be found in: Nichols J S et al. “Development of a scintillation proximity assay for peroxisome proliferator-activated receptor gamma ligand binding domain”, (1998) Anal. Biochem. 257: 112-119.
# (§2) Full-length cDNA clones for humans PPARδ and PPARα and mouse PPARγ were obtained by RT-PCR from human adipose and mouse liver cRNA, respectively, cloned into plasmid vectors and verified by DNA sequencing. Bacterial and mammalian expression vectors were constructed to produce glutathione-s-transferase (GST) and Gal4 DNA binding domain proteins fused to the ligand binding domains (LBD) of PPARδ (aa 139 to 442), PPARγ (aa 174 to 476) and PPARα (aa 167 to 469). To accomplish this, the portions of the cloned sequences encoding the LBDs were amplified from the full-length clones by PCR and then subcloned into the plasmid vectors. Final clones were verified by DNA sequence analysis. […]
# (§3) PPARα receptor binding was assayed in TKE50 (50 mM Tris-HCl, pH 8, 50 mM KCl, 2 mM EDTA, 0.1 mg/ml fatty acid-free BSA and 10 mM DTT). […] All binding assays were performed in 96 well plates and the amount of bound ligand measured on a Packard TopCount using OptiPlates (Packard). Nonspecific binding was determined in the presence of 10^−4 M unlabelled compound. […]
# [2] = target: T2, PPARγ (Mus musculus, UniProt P37238); assay: PPARγ radioligand binding assay (scintillation proximity, GST-PPARγ-LBD)
# T2 construct: PPARγ (aa 174 to 476); made in house; host or cells: E. coli BL21(pLysS)
# T2 sequence (P37238 204-505): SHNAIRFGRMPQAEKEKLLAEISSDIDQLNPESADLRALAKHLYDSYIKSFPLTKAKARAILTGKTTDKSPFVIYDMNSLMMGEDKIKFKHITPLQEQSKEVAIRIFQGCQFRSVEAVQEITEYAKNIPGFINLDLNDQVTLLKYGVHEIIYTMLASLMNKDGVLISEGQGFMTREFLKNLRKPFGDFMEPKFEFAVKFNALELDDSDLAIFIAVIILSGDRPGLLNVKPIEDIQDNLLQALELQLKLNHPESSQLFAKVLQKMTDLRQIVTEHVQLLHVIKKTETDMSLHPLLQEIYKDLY
# Source text: as §1, §2
# as §3, with “PPARγ” for “PPARα”
# [3] = target: T3, PPARδ (Homo sapiens, UniProt Q03181); assay: PPARδ radioligand binding assay (scintillation proximity, GST-PPARδ-LBD)
# T3 construct: PPARδ (aa 139 to 442); made in house; host or cells: E. coli BL21(pLysS)
# T3 sequence (Q03181 139-441 limits assumed): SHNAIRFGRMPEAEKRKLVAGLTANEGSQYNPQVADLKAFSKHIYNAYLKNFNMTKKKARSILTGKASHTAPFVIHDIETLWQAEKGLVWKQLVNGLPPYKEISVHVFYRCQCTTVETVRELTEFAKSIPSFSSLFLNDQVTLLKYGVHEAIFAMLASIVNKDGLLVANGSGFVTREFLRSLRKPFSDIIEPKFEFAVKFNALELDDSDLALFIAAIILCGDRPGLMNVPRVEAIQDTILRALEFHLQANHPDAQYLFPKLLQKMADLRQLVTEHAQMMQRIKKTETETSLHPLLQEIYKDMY
# Source text: as §1, §2
# PPARδ receptor binding was assayed in HNM10 (50 mM Hepes, pH 7.4, 10 mM NaCl, 5 mM MgCl2, 0.15 mg/ml fatty acid-free BSA and 15 mM DTT). […] Radioligand was added and the reaction incubated at RT for 1 h and scintillation proximity counting performed in the presence of test compounds was determined. All binding assays were performed in 96 well plates and the amount of bound ligand was measured on a Packard TopCount using OptiPlates (Packard). […]
IC50 [1] [nM],IC50 [2] [nM],IC50 [3] [nM],SMILES
74,> 10000,301,"O=C(O)Cn1ccc2cc(OCCCC#Cc3ccc(OC(F)(F)F)cc3)ccc21 [Example 6, {5-[5-(4-Trifluoromethoxy-phenyl)-pent-4-ynyloxy]-indol-1-yl}-acetic acid]"
317,> 10000,149,"O=C(O)Cn1ccc2ccc(OCCCC#Cc3cccc(OC(F)(F)F)c3)cc21 [Example 2, {6-[5-(3-Trifluoromethoxy-phenyl)-pent-4-ynyloxy]-indol-1-yl}-acetic acid]"
